Experimental data reported in US4522944A, “Carboxamido-derivatives of 5H-1,3,4-thiadiazolo[3,2-a]pyrimidines, compositions and use” (priority 1982, dated 1985).

Experiments:
[1] = approximate acute toxicity (LD50); conditions: in vivo, po; mouse, per os, single administration of increasing doses, measured on the seventh day after treatment
Protocol: In view of their high therapeutic index, the compounds of the invention can be used safely in medicine. For example, the approximate acute toxicity (LD50) of the compounds 2-(3-pyridyl)-5-oxo-5H-1,3,4-thiadiazolo[3,2-a]pyrimidine-6-N-(2-pyridyl)-carboxamide and 5-oxo-5H-1,3,4-thiadiazolo[3,2-a]pyrimidine-6-N-(2-pyridyl)-carboxamide in the mouse, determined by single administration of increasing doses and measured on the seventh day after treatment, is higher than 800 mg/kg per os. Analogous toxicity data have been found for other compounds of the invention.

[2] = tested on: edema formation in the hind paw; assay: Carrageenin induced oedema (edema formation in the hind paw of rats); format: in vivo; conditions: rat, oral administration; approximate ED50; read-out: Anti-inflammatory activity, Carrageenin induced oedema, ED50
From the text: (§1) The hydroxy protecting groups, for instance, may be removed by mild reaction conditions, e.g. acid hydrolysis.
(A) the edema formation in the hind paw of rats in response to a subplantar injection of carrageenin, according to the method of C. A. Winter et al. (J. Pharmac. Exp. Therap. 1963, 141, 369) and P. Lence (Arch. Int. Pharmacodyn., 1962, 136, 237), and
(§2) The following Tables I and II show, for example, the approximate ED50 values of the anti-inflammatory activity in the above mentioned tests, in the rat after oral administration, for a compound of this invention: 2-(3-pyridyl)-5-oxo-5H-1,3,4-thiadiazolo[3,2-a]pyrimidine-6-N-(2-pyridyl)-carboxamide (internal code FCE 22914): […]

[3] = tested on: Reversed Passive Arthus Reaction (RPAR) in rat paw; assay: Reversed Passive Arthus Reaction (RPAR) in rat paw; format: in vivo; conditions: oral administration, approximate ED50, read-out: Anti-inflammatory activity, RPAR reaction, ED50
From the text: as §1
(B) the Reversed Passive Arthus Reaction (RPAR) in rat paw, induced by the interaction of antigen and antibody resulting in the formation of precipitating immune complex, followed by fixation of complement and accumulation of polymorphonuclear leucocytes at a focal point (D. K. Gemmell, J. Cottney and A. J. Lewis, Agents and Actions 9/1 pag. 107, 1979).
as §2

[4] = tested on: mice; assay: phenylquinone test in mice (analgesic activity); format: in vivo; conditions: 50 mg/kg, oral administration
Protocol: The analgesic activity was assessed, for example, by means of the phenylquinone test in mice according to Siegmund: [Siegmund et al. Proc. Soc. Exper. Biol. Med. 95, 729 (1957)]. In this test the compound FCE 22914, for example, gives a 30% inhibition at 50 mg/kg after oral administration. It is known that certain thiadiazolo-pyrimidine derivatives are endowed with anti-allergic and anti-asthma activity, e.g. those described in Published Japan Patent Application No. J57 142989, but such compounds are devoid of any anti-inflammatory and/or analgesic activity.

In the case of `O=C(Nc1ccccn1)c1cnc2scnn2c1=O` [5-oxo-5H-1,3,4-thiadiazolo[3,2-a]pyrimidine-6-N-(2-pyridyl)-carboxamide], the LD50 at 168 h [1] is reported as > 800 mg/kg.
With `O=C(Nc1ccccn1)c1cnc2sc(-c3cccnc3)nn2c1=O` [FCE 22914, 2-(3-pyridyl)-5-oxo-5H-1,3,4-thiadiazolo[3,2-a]pyrimidine-6-N-(2-pyridyl)-carboxamide] the LD50 at 168 h [1] was > 800 mg/kg, the ED50 [2] was 45.9 mg/kg and the ED50 [3] was 85.2 mg/kg. The “inhibition in phenylquinone test (analgesic activity)” value [4] was 30%.
